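Compound exposure: 48 hours, 5 concentrations, 96-well plates. The concentration for 50% growth inhibition is given as GI50.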 The source made the active and inactive calls. No stated cut-off is given here; in the data, active = GI50 up to about 1.1 µM and inactive = higher.
Columns and labels:
Experiment in all cases: DTP human tumour cell line panel, 48 h
RPMI-8226 = tested on: RPMI-8226
786-0 = tested on: 786-0
OVCAR-8 = tested on: OVCAR-8
OVCAR-4 = tested on: OVCAR-4
MDA-MB-435 = tested on: MDA-MB-435
SNB-19 = tested on: SNB-19
OVCAR-5 = tested on: OVCAR-5
RXF 393 = tested on: RXF 393
Hs-578T = tested on: Hs-578T
SK-OV-3 = tested on: SK-OV-3
SR = tested on: SR
DU-145 = tested on: DU-145
HOP-92 = tested on: HOP-92
ACHN = tested on: ACHN
CAKI-1 = tested on: CAKI-1
SF-539 = tested on: SF-539
IGROV-1 = tested on: IGROV-1
T47D = tested on: T47D
SK-MEL-28 = tested on: SK-MEL-28
KM12 = tested on: KM12

SMILES	GI50 (RPMI-8226)	GI50 (786-0)	GI50 (OVCAR-8)	GI50 (OVCAR-4)	GI50 (MDA-MB-435)	GI50 (SNB-19)	GI50 (OVCAR-5)	GI50 (RXF 393)	GI50 (Hs-578T)	GI50 (SK-OV-3)	GI50 (SR)	GI50 (DU-145)	GI50 (HOP-92)	GI50 (ACHN)	GI50 (CAKI-1)	GI50 (SF-539)	GI50 (IGROV-1)	GI50 (T47D)	GI50 (SK-MEL-28)	GI50 (KM12)
O=C(O)CS(=O)(=O)C(c1ccccc1)c1ccccc1	> 100 µM (inactive)	> 100 µM (inactive)	> 100 µM (inactive)	> 100 µM (inactive)	> 100 µM (inactive)	> 100 µM (inactive)	> 100 µM (inactive)	> 100 µM (inactive)	> 100 µM (inactive)	> 100 µM (inactive)	> 100 µM (inactive)	> 100 µM (inactive)	> 100 µM (inactive)	> 100 µM (inactive)	> 100 µM (inactive)	> 100 µM (inactive)	> 100 µM (inactive)	> 100 µM (inactive)	> 100 µM (inactive)	> 100 µM (inactive)
Cc1ccc(CC[PH](=O)CCc2ccc(C)nc2)cn1	> 100 µM (inactive)	> 100 µM (inactive)	> 100 µM (inactive)	> 100 µM (inactive)	> 100 µM (inactive)	> 100 µM (inactive)	> 100 µM (inactive)	> 100 µM (inactive)	> 100 µM (inactive)	> 100 µM (inactive)	> 100 µM (inactive)	> 100 µM (inactive)	> 100 µM (inactive)	> 100 µM (inactive)	> 100 µM (inactive)	> 100 µM (inactive)	> 100 µM (inactive)	> 100 µM (inactive)	> 100 µM (inactive)	> 100 µM (inactive)
C=CCOC(=O)N1c2ccc(O[Si](C)(C)C(C)(C)C)cc2[C@@]23O[C@@]24[C@@H]1C#C/C=C\C#C[C@]3(O)C(OC)(OC)C[C@@H]4C	18.6 µM (inactive)	43.5 µM (inactive)	> 53.8 µM (inactive)	48.6 µM (inactive)	> 85.1 µM (inactive)	> 74.6 µM (inactive)	> 100 µM (inactive)	29.5 µM (inactive)	37.8 µM (inactive)	7.36 µM (inactive)	33.9 µM (inactive)	> 80 µM (inactive)	18.2 µM (inactive)	10.6 µM (inactive)	2.71 µM (inactive)	> 29.2 µM (inactive)	> 100 µM (inactive)	25.3 µM (inactive)	> 100 µM (inactive)	> 100 µM (inactive)
COc1ccc(C[C@H]2COC(=O)[C@@H]2Cc2ccc(Br)cc2)cc1OC	17.9 µM (inactive)	38 µM (inactive)	30.7 µM (inactive)	19.7 µM (inactive)	19.5 µM (inactive)	26.9 µM (inactive)	23.4 µM (inactive)	20 µM (inactive)	26.5 µM (inactive)	22 µM (inactive)	20.7 µM (inactive)	16.8 µM (inactive)	20.2 µM (inactive)	15.1 µM (inactive)	34 µM (inactive)	38.2 µM (inactive)	16.1 µM (inactive)	6.08 µM (inactive)	42.2 µM (inactive)	21.9 µM (inactive)
ClCc1nc2cc(Cl)ccc2o1	1.42 µM (inactive)	1.67 µM (inactive)	4.91 µM (inactive)	1.71 µM (inactive)	2.6 µM (inactive)	7.48 µM (inactive)	18.7 µM (inactive)	12.2 µM (inactive)	13.7 µM (inactive)	14.8 µM (inactive)	1.7 µM (inactive)	6.21 µM (inactive)	1.91 µM (inactive)	1.72 µM (inactive)	1.65 µM (inactive)	5.51 µM (inactive)	1.61 µM (inactive)	2.44 µM (inactive)	4.44 µM (inactive)	12.3 µM (inactive)
NC(CSc1nc2ccccn2c1[N+](=O)[O-])C(=O)O (stereo not given)	> 100 µM (inactive)	> 100 µM (inactive)	> 100 µM (inactive)	> 100 µM (inactive)	> 100 µM (inactive)	> 100 µM (inactive)	> 100 µM (inactive)	> 100 µM (inactive)	> 100 µM (inactive)	> 100 µM (inactive)	61.1 µM (inactive)	> 100 µM (inactive)	> 100 µM (inactive)	> 100 µM (inactive)	> 100 µM (inactive)	> 100 µM (inactive)	> 100 µM (inactive)	> 100 µM (inactive)	> 100 µM (inactive)	> 100 µM (inactive)
O=C1CCCC2(c3ccccc3)Nc3ccccc3N12 (stereo not given)	> 100 µM (inactive)	> 100 µM (inactive)	> 100 µM (inactive)	> 100 µM (inactive)	> 100 µM (inactive)	> 100 µM (inactive)	> 100 µM (inactive)	> 100 µM (inactive)	> 100 µM (inactive)	> 100 µM (inactive)	67.8 µM (inactive)	> 100 µM (inactive)	> 100 µM (inactive)	> 100 µM (inactive)	> 100 µM (inactive)	> 100 µM (inactive)	> 100 µM (inactive)	> 100 µM (inactive)	> 100 µM (inactive)	> 100 µM (inactive)
Cc1cc(Cl)ccc1Nc1nc2c(s1)C(=O)c1ccccc1C2=O	2.92 µM (inactive)	1.71 µM (inactive)	2.88 µM (inactive)	3.29 µM (inactive)	0.378 µM (active)	4.75 µM (inactive)	4.55 µM (inactive)	7.28 µM (inactive)	2.39 µM (inactive)	8.49 µM (inactive)	2.8 µM (inactive)	1.68 µM (inactive)	13.9 µM (inactive)	3.98 µM (inactive)	6.3 µM (inactive)	3.39 µM (inactive)	4.51 µM (inactive)	2.02 µM (inactive)	1.98 µM (inactive)	6.01 µM (inactive)
Cc1ccc(OCC2OC(n3cnc4c(Cl)nc(Nc5cc(Cl)cc(Cl)c5)nc43)CC2Oc2ccc(C)cc2)cc1 (stereo not given)	> 100 µM (inactive)	> 100 µM (inactive)	> 100 µM (inactive)	10.4 µM (inactive)	> 100 µM (inactive)	> 100 µM (inactive)	> 100 µM (inactive)	> 100 µM (inactive)	> 100 µM (inactive)	> 100 µM (inactive)	> 100 µM (inactive)	> 100 µM (inactive)	> 100 µM (inactive)	> 100 µM (inactive)	> 100 µM (inactive)	> 100 µM (inactive)	> 100 µM (inactive)	48.9 µM (inactive)	> 100 µM (inactive)	> 100 µM (inactive)
Cc1nn2c(=O)c([N+](=O)[O-])c(/C=C/c3ccco3)nc2s1	36.7 µM (inactive)	76 µM (inactive)	32.7 µM (inactive)	> 100 µM (inactive)	21.1 µM (inactive)	59 µM (inactive)	73.1 µM (inactive)	28.7 µM (inactive)	27.8 µM (inactive)	43.6 µM (inactive)	28.2 µM (inactive)	40.5 µM (inactive)	36.2 µM (inactive)	60.5 µM (inactive)	52.6 µM (inactive)	47.4 µM (inactive)	51.8 µM (inactive)	27.8 µM (inactive)	48.6 µM (inactive)	39.2 µM (inactive)
COc1cccc(C2c3cc4c(cc3OC(Nc3ccccc3)C2C)OCO4)c1O (stereo not given)	6.43 µM (inactive)	9.08 µM (inactive)	12.9 µM (inactive)	36.3 µM (inactive)	2.15 µM (inactive)	15.2 µM (inactive)	30.1 µM (inactive)	5.05 µM (inactive)	5.81 µM (inactive)	10.3 µM (inactive)	3.66 µM (inactive)	15.4 µM (inactive)	2.48 µM (inactive)	10.9 µM (inactive)	13.5 µM (inactive)	4.07 µM (inactive)	8.95 µM (inactive)	12.7 µM (inactive)	7.21 µM (inactive)	4.63 µM (inactive)
Cc1ccc2c(c1)C(C(=O)N[C@@H]1C(=O)N3[C@@H]1SC(C)(C)[C@@H]3C(=O)O)OCCC2 (stereo not given in full)	> 100 µM (inactive)	> 100 µM (inactive)	> 100 µM (inactive)	> 100 µM (inactive)	> 100 µM (inactive)	> 100 µM (inactive)	> 100 µM (inactive)	> 100 µM (inactive)	> 100 µM (inactive)	> 100 µM (inactive)	> 100 µM (inactive)	> 100 µM (inactive)	> 100 µM (inactive)	> 100 µM (inactive)	> 100 µM (inactive)	> 100 µM (inactive)	> 100 µM (inactive)	> 100 µM (inactive)	> 100 µM (inactive)	> 100 µM (inactive)

From ChEMBL document CHEMBL1201862, “PubChem BioAssay data set” (2004)
